Results taken from US10029986B2, “Alkynyl pyridine-substituted amide compound and pesticide” (NISSAN CHEMICAL INDUSTRIES, LTD., priority 2014, dated 2018).

Assays:
[1] = tested on: Erysiphe polygoni (synonym: Erysiphe betae); assay: Test on the preventive effect against cucumber powdery mildew; assay type: in vivo; details: 216 h, test solution A 500 ppm, 5 ml per pot sprayed, cucumber cotyledon stage, 9 days after inoculation
Protocol: Compounds of the present invention were dissolved in a solvent for emulsion (a mixture of Sorpol (registered trademark) 3005XL (manufactured by Toho Chemical Industry Co., Ltd.): N-methylpyrrolidone: Solvesso (registered trademark) 200 (manufactured by ExxonMobil Chemical) in a ratio of 1:5:2) to prepare 20 wt % emulsifiable concentrates. Then, distilled water was added to dilute the emulsifiable concentrates to the prescribed concentration (500 ppm), and the obtained solutions were used in the following the Test Examples 1 to 8. Cucumber (varieties: Sagami Hanjiro) was seeded in 90 cm^3 plastic pot, and at the cotyledon stage, 5 ml per pot of test solution A of the compounds of the present invention was sprayed. After drying in air, the pot was placed in an air-conditioned greenhouse (20° C.), and a suspension of conidium of Erysiphe polygoni (synonym: Erysiphe betae) was sprayed. After the pot were replaced at the same temperature for 9 days, the proportion of the formed lesion in the inoculated leaves were counted to calculate the control value in accordance with the following formula. The test was carried out in duplicate. Control value=[1−(lesion area ratio in treated plot/lesion are a ratio in non-treated plot)]×100

[2] = tested on: Blumeria graminis f. sp. tritici; assay: Test on the preventive effect against wheat powdery mildew; assay type: in vivo; details: 168 h, test solution A 500 ppm, 5 ml per pot, wheat 1.3-leaf stage, 7 days after inoculation
Protocol: (§1) Compounds of the present invention were dissolved in a solvent for emulsion (a mixture of Sorpol (registered trademark) 3005XL (manufactured by Toho Chemical Industry Co., Ltd.): N-methylpyrrolidone: Solvesso (registered trademark) 200 (manufactured by ExxonMobil Chemical) in a ratio of 1:5:2) to prepare 20 wt % emulsifiable concentrates. Then, distilled water was added to dilute the emulsifiable concentrates to the prescribed concentration (500 ppm), and the obtained solutions were used in the following the Test Examples 1 to 8. Wheat (varieties: Norin 61) was seeded in 90 cm^3 plastic pot, and at the 1.3-leaf stage, 5 ml per pot of test solution A of the compounds of the present invention were applied. One day after treatment, the pot was placed in an air-conditioned greenhouse (20° C.), and conidium of Blumeria graminis f. sp. tritici was inoculated to the wheat. 7 days after, the proportion of the formed lesion in the inoculated leaves were measured to calculate the control value in accordance with the same formula as in the Test Example 1. The test was carried out in duplicate.

[3] = tested on: Phaeosphaeria nodorum (Synonym: Septoria nodorum); assay: Test on the preventive effect against wheat glume blotch; assay type: in vivo; details: Parastagonospora nodorum, 144 h; test solution A 500 ppm, 5 ml per pot, wheat 1.3-leaf stage, 2 days inoculation chamber then 6 days at 20° C.
Protocol: as §1, with “Wheat (varieties: Haruyutaka) was seeded” for “Wheat (varieties: Norin 61) was seeded”, “and at 1.3-leaf stage,” for “and at the 1.3-leaf stage,”, “present invention was applied. One” for “present invention were applied. One”, “after treatment, a suspension of conidium of Phaeosphaeria nodorum (Synonym: Septoria nodorum) was sprayed to the wheat, and the pot was left in the inoculation chamber at 20° C. under humidity of 100% RH for 2 days. Then, the pot” for “after treatment, the pot”, “greenhouse (20° C.) for 6 days. The proportion of” for “greenhouse (20° C.), and conidium of Blumeria graminis f. sp. tritici was inoculated to the wheat. 7 days after, the proportion of”

Puccinia recondita = assay: Test on the preventive effect against wheat leaf rust; assay type: in vivo; details: 216 h, test solution A 500 ppm, 5 ml per pot, wheat 1.3-leaf stage, 1 day inoculation chamber then 8 days at 20° C.
Protocol: as §1, with “and at 1.3-leaf stage,” for “and at the 1.3-leaf stage,”, “present invention was applied. One” for “present invention were applied. One”, “after treatment, a suspension of spores of Puccinia recondita was sprayed to the wheat, and the pot was left in the inoculation chamber at 20° C. under humidity of 100% RH for 1 day. Thereafter, the pot” for “after treatment, the pot”, “greenhouse (20° C.) for 8 days. The proportion of” for “greenhouse (20° C.), and conidium of Blumeria graminis f. sp. tritici was inoculated to the wheat. 7 days after, the proportion of”, “leaves were counted to calculate” for “leaves were measured to calculate”

COC(c1ncc(C#CC2CC2)cc1Cl)C(C)NC(=O)c1ccccc1C(F)(F)F (stereo not shown) [1-024]
pest or weed control at 500 µg/mL [1]: ≥ 70%
pest or weed control at 500 µg/mL [2]: ≥ 70%
pest or weed control at 500 µg/mL [3]: ≥ 70%
pest or weed control at 500 µg/mL (Puccinia recondita): ≥ 70%

Cn1cc(C(=O)NCC2(c3ncc(C#CC4CC4)cc3Cl)CC2)c(C(F)F)n1 [8-018, N-[[1-[3-chloro-5-(cyclopropylethynyl)pyridin-2-yl]cyclopropyl]methyl]-3-difluoromethyl-1-methyl-1H-pyrazole-4-carboxamide]
pest or weed control at 500 µg/mL [1]: ≥ 70%
pest or weed control at 500 µg/mL [2]: ≥ 70%
pest or weed control at 500 µg/mL [3]: ≥ 70%

CC(C)(CNC(=O)c1cccnc1C(F)F)c1ncc(C#CC2CC2)cc1Cl [3-007, N-[2-[3-chloro-5-(cyclopropylethynyl)pyridin-2-yl]-2-methylpropyl]-2-(difluoromethyl)nicotinamide]
pest or weed control at 500 µg/mL [1]: ≥ 70%
pest or weed control at 500 µg/mL [2]: ≥ 70%
pest or weed control at 500 µg/mL [3]: ≥ 70%

CC(CNC(=O)c1cccnc1Cl)c1ncc(C#CC2CC2)cc1Cl (stereo not shown) [3-005]
pest or weed control at 500 µg/mL [1]: ≥ 70%
pest or weed control at 500 µg/mL [2]: ≥ 70%
pest or weed control at 500 µg/mL [3]: ≥ 70%

CC(C)(C)C#Cc1cnc(CCNC(=O)c2ccccc2C(F)(F)F)c(Cl)c1 [1-003, N-[2-[3-chloro-5-(3,3-dimethyl-1-butynyl)pyridin-2-yl]ethyl]-2-(trifluoromethyl)benzamide]
pest or weed control at 500 µg/mL [1]: ≥ 70%
pest or weed control at 500 µg/mL [2]: ≥ 70%
pest or weed control at 500 µg/mL [3]: ≥ 70%
melting point: 90 to 92 °C

O=C(NCC(c1ncc(C#CC2CC2)cc1Cl)C1CC1)c1ccccc1C(F)(F)F (stereo not shown) [1-009]
pest or weed control at 500 µg/mL [1]: ≥ 70%
pest or weed control at 500 µg/mL [2]: ≥ 70%
pest or weed control at 500 µg/mL [3]: ≥ 70%

CSC(CNC(=O)c1ccccc1C(F)(F)F)c1ncc(C#CC2CC2)cc1Cl (stereo not shown) [1-021]
pest or weed control at 500 µg/mL [1]: ≥ 70%
pest or weed control at 500 µg/mL [2]: ≥ 70%
pest or weed control at 500 µg/mL [3]: ≥ 70%

COC(c1ncc(C#CC(C)(C)C)cc1Cl)C(C)NC(=O)c1ccccc1C(F)(F)F (stereo not shown) [1-025]
pest or weed control at 500 µg/mL [1]: ≥ 70%
pest or weed control at 500 µg/mL [2]: ≥ 70%
pest or weed control at 500 µg/mL [3]: ≥ 70%
pest or weed control at 500 µg/mL (Puccinia recondita): ≥ 70%
melting point: 36 to 38 °C

COC(c1ncc(C#CC2CC2)cc1Cl)C(C)NC(=O)c1cccnc1C(F)F (stereo not shown) [3-021]
pest or weed control at 500 µg/mL [1]: ≥ 70%
pest or weed control at 500 µg/mL [2]: ≥ 70%
pest or weed control at 500 µg/mL [3]: ≥ 70%
pest or weed control at 500 µg/mL (Puccinia recondita): ≥ 70%

COC(c1ncc(C#CC2CC2)cc1Cl)C(C)NC(=O)c1sc(C)nc1C(F)F (stereo not shown) [9-006a]
pest or weed control at 500 µg/mL [1]: ≥ 70%
pest or weed control at 500 µg/mL [2]: ≥ 70%
pest or weed control at 500 µg/mL [3]: ≥ 70%

O=C(NCCc1ncc(C#CC2CC2)cc1Cl)c1cccnc1C(F)F [3-001, N-[2-[3-chloro-5-(cyclopropylethynyl)pyridin-2-yl]ethyl]-2-(difluoromethyl)nicotinamide]
pest or weed control at 500 µg/mL [1]: ≥ 70%
pest or weed control at 500 µg/mL [2]: ≥ 70%
pest or weed control at 500 µg/mL [3]: ≥ 70%
pest or weed control at 500 µg/mL (Puccinia recondita): ≥ 70%
melting point: 114 to 117 °C

COC(c1ncc(C#CC2CC2)cc1Cl)C(C)NC(=O)c1cn(C)nc1C(F)F (stereo not shown) [8-028, N-[2-[3-chloro-5-(cyclopropylethynyl)pyridin-2-yl]-2-methoxy-1-methylethyl]-3-difluoromethyl-1-methyl-1H-pyrazole-4-carboxamide]
pest or weed control at 500 µg/mL [1]: ≥ 70%
pest or weed control at 500 µg/mL [2]: ≥ 70%
pest or weed control at 500 µg/mL [3]: ≥ 70%

C=C(CNC(=O)c1cn(C)nc1C(F)F)c1ncc(C#CC2CC2)cc1Cl [8-011, N-[2-[3-chloro-5-(cyclopropylethynyl)pyridin-2-yl]-2-propenyl]-3-difluoromethyl-1-methyl-1H-pyrazole-4-carboxamide]
pest or weed control at 500 µg/mL [1]: ≥ 70%
pest or weed control at 500 µg/mL [2]: ≥ 70%
pest or weed control at 500 µg/mL [3]: ≥ 70%
pest or weed control at 500 µg/mL (Puccinia recondita): ≥ 70%
melting point: 66 to 70 °C

CC(CNC(=O)c1ccccc1C(F)(F)F)c1ncc(C#CC2CC2)cc1Cl (stereo not shown) [1-007, N-[2-[3-chloro-5-(cyclopropylethynyl)pyridin-2-yl]propyl]-2-(trifluoromethyl)benzamide]
pest or weed control at 500 µg/mL [1]: ≥ 70%
pest or weed control at 500 µg/mL [2]: ≥ 70%
pest or weed control at 500 µg/mL [3]: ≥ 70%

Cn1cc(C(=O)NCCc2ncc(C#CC(C)(C)C)cc2Cl)c(C(F)F)n1 [8-002]
pest or weed control at 500 µg/mL [1]: ≥ 70%
pest or weed control at 500 µg/mL [2]: ≥ 70%
pest or weed control at 500 µg/mL [3]: ≥ 70%
pest or weed control at 500 µg/mL (Puccinia recondita): ≥ 70%

COC(CNC(=O)c1cn(C)nc1C(F)F)c1ncc(C#CC2CC2)cc1Cl (stereo not shown) [8-019]
pest or weed control at 500 µg/mL [1]: ≥ 70%
pest or weed control at 500 µg/mL [2]: ≥ 70%
pest or weed control at 500 µg/mL [3]: ≥ 70%
melting point: 110 to 111 °C

CC(CNC(=O)c1cn(C)nc1C(F)F)c1ncc(C#CC2CC2)cc1Cl (stereo not shown) [8-007]
pest or weed control at 500 µg/mL [1]: ≥ 70%
pest or weed control at 500 µg/mL [2]: ≥ 70%
pest or weed control at 500 µg/mL [3]: ≥ 70%
pest or weed control at 500 µg/mL (Puccinia recondita): ≥ 70%

COC(=O)C(CNC(=O)c1cn(C)nc1C(F)F)c1ncc(C#CC2CC2)cc1Cl (stereo not shown) [8-022, 2-[3-chloro-5-(cyclopropylethynyl)pyridin-2-yl]-3-(3-difluoromethyl-1-methyl-1H-pyrazole-4-carboxamide)propionic acid methyl ester]
pest or weed control at 500 µg/mL [1]: ≥ 70%
pest or weed control at 500 µg/mL [2]: ≥ 70%
pest or weed control at 500 µg/mL [3]: ≥ 70%
pest or weed control at 500 µg/mL (Puccinia recondita): ≥ 70%

CC(C)(CNC(=O)c1ccccc1C(F)(F)F)c1ncc(C#CC2CC2)cc1Cl [1-008]
pest or weed control at 500 µg/mL [1]: ≥ 70%
pest or weed control at 500 µg/mL [2]: ≥ 70%
pest or weed control at 500 µg/mL [3]: ≥ 70%

CC(NC(=O)c1ccccc1C(F)(F)F)C(OCc1ccccc1)c1ncc(C#CC2CC2)cc1Cl (stereo not shown) [1-031, N-[2-benzyloxy-2-[3-chloro-5-(cyclopropylethynyl)pyridin-2-yl]-1-methylethyl]-2-(trifluoromethyl)benzamide]
pest or weed control at 500 µg/mL [1]: ≥ 70%
pest or weed control at 500 µg/mL [2]: ≥ 70%
pest or weed control at 500 µg/mL [3]: ≥ 70%
pest or weed control at 500 µg/mL (Puccinia recondita): ≥ 70%

Cn1cc(C(=O)NCC(C)(C)c2ncc(C#CC3CC3)cc2Cl)c(C(F)F)n1 [8-008]
pest or weed control at 500 µg/mL [1]: ≥ 70%
pest or weed control at 500 µg/mL [2]: ≥ 70%
pest or weed control at 500 µg/mL [3]: ≥ 70%

COC(c1ncc(C#CC2CC2)cc1Cl)C(C)NC(=O)c1nccnc1C(F)(F)F (stereo not shown) [4-004]
pest or weed control at 500 µg/mL [1]: ≥ 70%
pest or weed control at 500 µg/mL [2]: ≥ 70%
pest or weed control at 500 µg/mL [3]: ≥ 70%
pest or weed control at 500 µg/mL (Puccinia recondita): ≥ 70%

C=C(CNC(=O)c1ccccc1C(F)(F)F)c1ncc(C#CC)cc1Cl [1-012, N-[2-[3-chloro-5-(1-propynyl)pyridin-2-yl]-2-propenyl]-2-(trifluoromethyl)benzamide]
pest or weed control at 500 µg/mL [1]: ≥ 70%
pest or weed control at 500 µg/mL [2]: ≥ 70%
pest or weed control at 500 µg/mL [3]: ≥ 70%
melting point: 85 to 90 °C
